{"source": "patent EP0206783A2", "about": "“Expression and secretion of polypeptides from saccharomyces cerevisiae” (The Salk Institute Biotechnology Industrial Associates, Inc., priority 1985, dated 1986)", "tested_on": "pituitary cells", "experiment": "rat pituitary cell bioassay for GRF (release of growth hormone)", "assay_type": "cell-based", "details": "plated rat pituitary cells, dexamethasone added, GH measured by anti-rat GH RIA; yeast peptide purified, from pTRP213-transformed GG100-14D", "protocol": "A rat pituitary cell bioassay for GRF was conducted using the purified GRF analog secreted from pTRP213-transformed S. cerevisiae cells (GG100-14D). The ability of the GRF analog to cause the release of growth hormone from the pituitary cells was measured and compared to the ability of a synthetic hGRF(1-40)-OH standard to do the same. Such an analysis allowed the biological activity of yeast-produced GRF analog to be evaluated.\nTypically, pituitaries of 20 rats were removed and treated with collagenase to obtain a suspension of approximately 8×10^7 cells which were then plated in the appropriate medium. The cells, attached to tissue culture dishes, were treated with yeast-derived peptide or synthetic standard within three to five days after plating. Dexamethasone was added to enhance the effect of GRF on GH secretion; cells treated in this manner secrete 8-9 times more GH than do control cells treated with GRF but not dexamethasore. Growth hormone secretion levels were measured using an anti-rat GH RIA which had been standardized with respect to the synthetic standard.\nThe percent of maximum rat growth hormone secretion upon treatment of the plated pituitary cells with purified GRF analog secreted from yeast and treatment with synthetic hGRF(1-40)-OH was determined. The ED50 value for secretion with both treatments was about. 32 pM.", "note": "Ends that are not written are not given here.", "data": [{"substance": "hGRF(1-40)-OH (YADAIFTNSYRKVLGQLSARKLLQDIMSRQQGESNQERGA-OH; UniProt P01286 32-71, looked up, fragment) [synthetic hGRF(1-40)-OH, synthetic polypeptide standard, hGRF(1-40)-OH (with Met at position 27)]", "values": [{"measurement": "ED50 value for secretion (percent of maximum rat growth hormone secretion)", "value": "~0.032", "unit": "nM"}]}]}
